Where two headings read alike, the source gives them in different places.
Tests used:
[1] = target: truncated human beta-secretase (residues 1-458, His6-tagged at the C-terminus) (Homo sapiens (Human), UniProt P56817); test: BACE enzyme assay (fluorescence quench, Example 434A); format: biochemical
[2] = target: BACE (Homo sapiens (Human), UniProt P56817); test: BACE cell assay (H4-APPsw cells, secreted Aβ 1-40 by AlphaLISA/ELISA); format: cell-based; details: in vitro cell activity
Protocol: H4 neuroglioma cell line that stably expresses Amyloid Precursor Protein (APP) containing the KM-NL Swedish mutation (H4-APPsw) was generated. For the assay, cells are treated overnight in the presence of inhibitor and the culture media are subjected to ELISA analysis of soluble Amyloid Beta 1-40 (Aβ 1-40).
H4 neuroglioma cell line was cultured in DMEM with 10% FBS and 1% penicillin/streptomycin (Culture Medium) at 37° C., 5% CO2. […] 24 hrs after transfection, the cells were replaced into three new plates (150 mm) in fresh Culture Medium with 250 ug/mL Zeocin. […] The levels of APPsw expression were analyzed by immunoblotting and the production of Aβ 1-40 was detected by ELISA of culture supernatants. The selected clones are maintained in Culture Medium with 250 μg/mL Zeocin and routinely split in 3-4 days to maintain 20-80% confluence.
Final Assay Conditions (96-Well Plate)
Day 1 Split Cells. Split H4-APPsw cells in Culture Medium and culture overnight such that cells will be ˜80% confluent next morning. Day 2 Create Compound Dilution Plate. After determining the desired final concentration of compound to be tested, create a 500× dilution plate. Add DMSO, but not inhibitor, to each well of Column 1. […] Add compounds of interest at 500× desired final concentration to wells A3-A10. Add DMSO, but not inhibitor, to each well of Columns 11 and 12. Dilute contents of Row A 1:3 in Row B, then continue through Rows C-H. Create Media Plate. To create a 2× solution of compound in media, add 996 μL Culture Medium to each well of a 96-well 2 mL deep well plate (Media Plate) in biosafety hood. Add 4 μL 5 mM control compound to Media Plate wells A1-D1 for determination of full inhibition. […] Add Media to Cell Plate. With a multichannel pipettor, mix each well of Media Plate several times to insure homogeneity. […] Next, place Medium Plate and Cell Plate in the incubator. Add cells to Cell Plate. Trypsinize and count H4-APPsw cells. […]
After 16 h incubation, spin Cell Plate for 8 min at 1200 rpm. The primary reading of Aβ 1-40 levels is done using PerkinElmer AlphaLISA technology. […]

[3] = footnote a: determined according to protocols described in Example 434A

Chain of truncated human beta-secretase (residues 1-458, His6-tagged at the C-terminus) (P56817 22-458): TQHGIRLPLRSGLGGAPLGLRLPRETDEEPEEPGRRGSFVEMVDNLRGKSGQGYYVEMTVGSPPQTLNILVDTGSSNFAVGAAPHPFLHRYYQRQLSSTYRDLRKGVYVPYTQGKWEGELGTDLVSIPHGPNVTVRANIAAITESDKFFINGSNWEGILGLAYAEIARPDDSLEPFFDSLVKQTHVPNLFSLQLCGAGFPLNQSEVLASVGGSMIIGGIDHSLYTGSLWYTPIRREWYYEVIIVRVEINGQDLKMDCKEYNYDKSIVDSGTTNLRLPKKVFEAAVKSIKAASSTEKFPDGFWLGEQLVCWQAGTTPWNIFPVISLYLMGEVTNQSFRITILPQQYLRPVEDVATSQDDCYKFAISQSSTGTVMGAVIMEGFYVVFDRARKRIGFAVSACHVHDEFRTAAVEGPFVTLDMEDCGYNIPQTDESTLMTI
Chain of BACE (P56817 46-501 limits assumed): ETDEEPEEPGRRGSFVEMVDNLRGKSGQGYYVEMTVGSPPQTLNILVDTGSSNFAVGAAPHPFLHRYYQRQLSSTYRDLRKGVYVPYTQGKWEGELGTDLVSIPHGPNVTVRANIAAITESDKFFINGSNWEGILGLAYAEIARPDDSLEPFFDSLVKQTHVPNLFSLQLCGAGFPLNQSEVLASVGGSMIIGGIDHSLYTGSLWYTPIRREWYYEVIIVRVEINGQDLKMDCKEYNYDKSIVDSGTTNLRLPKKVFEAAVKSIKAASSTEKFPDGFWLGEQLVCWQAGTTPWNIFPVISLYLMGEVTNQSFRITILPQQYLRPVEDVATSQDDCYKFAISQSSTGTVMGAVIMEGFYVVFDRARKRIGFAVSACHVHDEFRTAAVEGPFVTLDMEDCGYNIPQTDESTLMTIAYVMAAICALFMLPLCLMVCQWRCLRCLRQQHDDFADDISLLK

| Compound | IC50 [1, 3] [nM] | IC50 [2] [nM] | further results |
| --- | --- | --- | --- |
| Cc1onc2c1CC1(CC2)Cc2ccc(Br)cc2C12N=C(N)N(C)C2=O (stereo not drawn) [Compound 461] | 16.7 | – | – |
| COC1CCC2(CC1)Cc1ccc(-c3cccnn3)cc1C21N=C(N)N(C)O1 (stereo not drawn) [Compound 107] | – | – | IC50 [1]: 228 nM |
| CN1OC2(N=C1N)c1cc(Br)ccc1CC21CCc2ccccc2CC1 (stereo not drawn) [Compound 67] | 138 | – | – |
| CCOC1(F)CCC2(CC1)Cc1ccc(-c3cccc(C#N)c3)cc1C21N=C(N)N(C)O1 (stereo not drawn) [compound 49] | – | < 1000 | – |
| CN1OC2(N=C1N)c1cc(Br)ccc1C[C@@]21C[C@@H]1c1ccccc1 (stereo partly drawn) [Compound 460] | – | – | IC50 [1]: 9810 nM |
| COC1CCC2(CC1)Cc1ccc(C#CC3CC3)cc1C21C=C(N)N(C)O1 (stereo not drawn) [Compound 3] | 4.5 | < 100 | – |
| COC1CCC2(CC1)Cc1ccc(C3=CC(O)CC3)cc1C21N=C(N)N(C)C1=O (stereo not drawn) [Compound 476] | – | – | IC50 (nM) [1, 3]: 33. l^a |
| CN1C(=O)C2(N=C1N)c1cc(-c3cccc(C#N)c3)ccc1CC21Cc2cnncc2C1 (stereo not drawn) [Compound 471] | 870 | – | – |
| CN1OC2(C=C1N)c1cc(-c3cccc(C#N)c3)ccc1CC21CCCc2ccccc2C1 (stereo not drawn) [Compound 46] | 293 | < 10000 | – |
| CN1OC2(N=C1N)c1cc(-c3cccc(C#N)c3)ccc1CC21CCS(=O)(=O)CC1 (stereo not drawn) [Compound 459] | 693 | – | – |

— US9212153B2, “Inhibitors of beta-secretase” (Vitae Pharmaceuticals, Inc., priority 2009, dated 2015)
